Where “and” joins values, the source holds several entries; their conditions need not be identical. Identical values can stand only once.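 1) Cells in 96-well plates. 2) Compound, 48 h, 5 concentrations. 3) Linear interpolation between surrounding doses. 4) Unreached endpoint = highest concentration. The concentration for 50% growth inhibition is given as GI50. Definition used: TGI = concentration required for complete inhibition of growth.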
What was measured:
Assay in all cases: inhibition of tumour cell growth, NCI panel, 48 h
786-0 renal = system: 786-0 renal
CCRF-CEM leukemia = system: CCRF-CEM leukemia
COLO 205 colon = system: COLO 205 colon
HL-60(TB) leukemia = system: HL-60(TB) leukemia
LOX IMVI melanoma = system: LOX IMVI melanoma
MDA-MB-231 breast = system: MDA-MB-231 breast
OVCAR-3 ovarian = system: OVCAR-3 ovarian
SK-OV-3 ovarian = system: SK-OV-3 ovarian
SNB-19 CNS = system: SNB-19 CNS
SNB-75 CNS = system: SNB-75 CNS

Row | SMILES | GI50 (786-0 renal) | TGI (786-0 renal) | GI50 (CCRF-CEM leukemia) | TGI (CCRF-CEM leukemia) | GI50 (COLO 205 colon) | TGI (COLO 205 colon) | GI50 (HL-60(TB) leukemia) | GI50 (LOX IMVI melanoma) | TGI (LOX IMVI melanoma) | GI50 (MDA-MB-231 breast) | TGI (MDA-MB-231 breast) | GI50 (OVCAR-3 ovarian) | TGI (OVCAR-3 ovarian) | GI50 (SK-OV-3 ovarian) | TGI (SK-OV-3 ovarian) | GI50 (SNB-19 CNS) | TGI (SNB-19 CNS) | GI50 (SNB-75 CNS) | TGI (SNB-75 CNS) | TGI (HL-60(TB) leukemia)
1 | COc1ccc(-c2cc(=O)[nH]c3c(OC)c4ccccc4c(OC)c23)cc1 | 0.532 µM | > 100 µM | 0.401 µM | > 100 µM | 0.424 µM | 3.52 µM | 0.276 µM | 0.655 µM | > 100 µM | 1.44 µM | > 100 µM | 0.165 µM | 0.713 µM | 0.606 µM | > 100 µM | 2.06 µM | > 100 µM | 0.246 µM | 1.68 µM | –
2 | Cc1cc(O)c(C(C)C)cc1S(=O)(=O)O (tested in a mixture with another compound) | 0.586 µM | – | 0.323 µM | – | 0.224 µM | – | 0.279 µM | 0.483 µM | – | 0.377 µM | 1.65 µM | 0.259 µM | – | 0.27 µM | – | 0.423 µM | – | 0.378 µM | – | –
3 | COc1cc(C[C@H]2c3cc(OC)c(OC)cc3CCN2C)c(Oc2cc3c(cc2OC)-c2c(OC)c(OC)cc4c2[C@H](C3)N(C)CC4)cc1OC | 8.97 µM | 14.1 µM and 21.9 µM | 6.59 µM | 27.6 µM and 22.6 µM | 2.17 µM | 12.6 µM and 8.09 µM | 5.71 µM | 9.21 µM | 14.7 µM and 24.3 µM | – | 14.9 µM | 11.8 µM | 23.6 µM and 24.8 µM | 15.1 µM and 21.1 µM | 40 µM and 36.2 µM | 20.3 µM | 41.8 µM and 54 µM | 9.19 µM | 15.3 µM and 24.3 µM | 13.9 µM and 19.4 µM
4 | COc1ccc2nc3cccc([N+](=O)[O-])c3c(NCCCCCC(=O)O)c2c1 | 0.0799 µM | 0.548 µM | 0.0397 µM | 0.302 µM | – | 0.078 µM | 0.0372 µM | 0.171 µM | 0.487 µM | 0.838 µM | 74 µM | 0.12 µM | 2.64 µM | 0.915 µM | 5.41 µM | 0.178 µM | 2.84 µM | 0.282 µM | 1.57 µM | 6.2 µM
5 | Cc1c(C(N)=O)sc2c1C(=O)N(Cc1ccccc1)C1=NN=C(c3ccc(Cl)cc3)CN12 | 2.65 µM | 6.92 µM | 1.49 µM | 43.1 µM | 4.42 µM | 16.9 µM | 2.59 µM | 1.62 µM | 10.8 µM | 3.54 µM | 16 µM | 3.75 µM | 16.4 µM | 3.71 µM | 15.8 µM | 3.71 µM | 16.1 µM | 10.6 µM | 23.7 µM | 46.1 µM
6 | CCC(C)(CC(C)(C)C(=O)NCC(=O)NC(Cc1ccccc1)C(=O)NC(Cc1ccccc1)C(=O)NCC(=O)NC1CC(OC2CC(O)(C(=O)CO)Cc3c(O)c4c(c(O)c32)C(=O)c2c(OC)cccc2C4=O)OC(C)C1O)C(=O)NCC(C)O (configuration not stated) | 54.3 µg/mL | > 150 µg/mL | 3.35 µg/mL and 98.9 µg/mL | > 150 µg/mL | 102 µg/mL | > 150 µg/mL | 1.32 µg/mL and 62.8 µg/mL | 35.2 µg/mL | > 150 µg/mL | 119 µg/mL | > 150 µg/mL | > 150 µg/mL | > 150 µg/mL | > 150 µg/mL | > 150 µg/mL | 69.2 µg/mL | > 150 µg/mL | 16.1 µg/mL | > 150 µg/mL | –
7 | CCN(CC)CCCC(C)Nc1ccnc2cc(Oc3ccccc3)ccc12 (configuration not stated) | 4.53 µM and 5.09 µM | 11.6 µM and 17.4 µM | 2.64 µM and 4.69 µM | 12.8 µM and 55.6 µM | 1.88 µM and 1.65 µM | 4.4 µM and 3.94 µM | 3.24 µM and 13.1 µM | 2.05 µM and 2.13 µM | 5.06 µM and 6.82 µM | 2.05 µM and 3.47 µM | 8.41 µM and 21.9 µM | 13.7 µM and 22 µM | 34.2 µM and > 100 µM | 15.7 µM and 22.9 µM | 32.2 µM and 78.9 µM | 15.8 µM and 25.4 µM | 66.3 µM and > 100 µM | 2.04 µM and 10.9 µM | 15.1 µM and 25.4 µM | 9.38 µM and 41.6 µM
8 | CC(C)N(Cc1ccccc1)c1c(S)ssc1=S | 3.65 µM | > 100 µM | 0.849 µM | 6.66 µM | 1.56 µM | 4.26 µM | 1.16 µM | 3.08 µM | 15.5 µM | 1.77 µM | 5.49 µM | 1.21 µM | > 100 µM | 2.47 µM | 9.59 µM | 3.76 µM | > 100 µM | 2.98 µM | 26.9 µM | 3.12 µM
9 | CC(=O)OCC1OC(n2cnc(C(N)=S)c2N)C(OC(C)=O)C1OC(C)=O (configuration not stated) | – | > 100 µM | – | > 100 µM | – | > 100 µM | – | – | > 100 µM | – | > 100 µM | – | > 100 µM | – | > 100 µM | – | > 100 µM | – | > 100 µM | > 100 µM
10 | Cc1ccc(Nc2n[nH]c(=S)s2)cc1C | – | > 100 µM | – | > 100 µM | – | > 100 µM | – | – | > 100 µM | – | > 100 µM | – | > 100 µM | – | > 100 µM | – | > 100 µM | – | > 100 µM | > 100 µM
11 | C#Cc1c(F)ccc2cc(O)cc(-c3ncc4c(N5CC6CCC(C5)N6)nc(OC[C@@]56CCCN5C[C@H](F)C6)nc4c3F)c12 | 15 µM | 31 µM | 8.21 µM | 29.1 µM | 16.1 µM | 45.1 µM | 8.23 µM | 15.5 µM | 41.9 µM | 2.36 µM | 13.7 µM | 12.7 µM | 25.9 µM | 17.7 µM | 35.6 µM | 13.4 µM | 26.3 µM | 17.1 µM | 46.4 µM | 26.6 µM
12 | Cc1cc2c(cc1C)N(C(=O)CCl)CC(=O)N2 | 3.9 µM | 15.5 µM | 2.01 µM | 5.49 µM | 2.09 µM | 3.68 µM | 2.69 µM | 0.858 µM | 4.85 µM | 4.19 µM | 15.9 µM | 1.89 µM | 3.33 µM | 12.2 µM | 24.6 µM | 12.6 µM | 26.2 µM | 3.39 µM | 20.8 µM | 5.74 µM
13 | C=C(C)C(=O)O[C@H]1CC(=C)[C@@H]2C[C@H](O)[C@](O)(CCl)[C@@H]2[C@H]2OC(=O)C(=C)[C@@H]21 | 1.93 µM | 3.88 µM | 1.57 µM | 3.71 µM | 1.87 µM | 3.66 µM | 1.97 µM | 1.8 µM | 3.39 µM | 4.28 µM | 13.6 µM | 1.81 µM | 4.38 µM | 16.2 µM | 30.2 µM | 16.6 µM | 32.2 µM | 6.97 µM | 20.7 µM | 4.19 µM
14 | COc1cc(OC(=O)c2ccccc2)cc2c1C(=O)C=CC2=O | – | 18.9 µM | – | 5.63 µM | – | 33.7 µM | – | – | 36.3 µM | – | 5.48 µM | – | 14.2 µM | – | 37 µM | – | 56.4 µM | – | 49.2 µM | 3.04 µM

Source: PubChem BioAssay (NCI)
